From publication PMC3972818 (Nature medicine, 2014)
Values after ≈ are worked out from the molar mass of the structure shown.

Key:
[1] = tested on: M. tuberculosis ATCC 35837; experiment: microbe, parasite or virus in culture; assay type: cell-based; conditions: Mycobacterium tuberculosis, ATCC35837
M. tuberculosis H37Rv = experiment: MIC, microbroth dilution; assay type: cell-based; conditions: Mycobacterium tuberculosis
[2] = tested on: M. tuberculosis ATCC 35822; assay type: cell-based, Mycobacterium tuberculosis
[3] = tested on: M. tuberculosis ATCC 35820; assay type: cell-based, Mycobacterium tuberculosis
[4] = tested on: M. tuberculosis ATCC 35838; assay type: cell-based, Mycobacterium tuberculosis
[5] = tested on: M. tuberculosis H37Rv-HL-14; assay type: cell-based, Mycobacterium tuberculosis
[6] = tested on: M. tuberculosis H37Rv-HL-15; assay type: cell-based, Mycobacterium tuberculosis

Structure (SMILES) | MIC [1] | MIC (M. tuberculosis H37Rv) | MIC [2] | MIC [3] | MIC [4] | MIC [5] | MIC [6]
CC[C@@H](CO)NCCN[C@@H](CC)CO [Ethambutol] | > 25 µg/mL | – | – | – | – | – | –
[H]/N=C(/N)N[C@H]1[C@H](O)[C@@H](O)[C@H](O[C@@H]2O[C@@H](C)[C@](O)(C=O)[C@H]2O[C@@H]2O[C@@H](CO)[C@H](O)[C@@H](O)[C@@H]2NC)[C@@H](N/C(N)=N\[H])[C@@H]1O [Streptomycin, streptomycin] | 1.6 µg/mL (≈ 2.75 µM) | 1.6 µg/mL (≈ 2.75 µM) | 1.6 µg/mL (≈ 2.75 µM) | >200 µg/mL | 1.6 µg/mL (≈ 2.75 µM) | 1.6 µg/mL (≈ 2.75 µM) | 1.6 µg/mL (≈ 2.75 µM)
CN[C@@H]1[C@H](O)[C@H](NC)[C@H]2O[C@@]3(O)C(=O)C[C@@H](C)O[C@H]3O[C@@H]2[C@H]1O [Spectinomycin, spectinomycin] | 100 µg/mL (≈ 301 µM) | 100 µg/mL (≈ 301 µM) | 100 µg/mL (≈ 301 µM) | 200 µg/mL (≈ 602 µM) | 100 µg/mL (≈ 301 µM) | >200 µg/mL | >200 µg/mL
